Assay results as given in patent US20240390404A1, “ANTI-HUMAN NOROVIRUS AGENT” (KEIO UNIVERSITY, priority 2018, published 2024).

Key:
VLP of norovirus GII. 4 = assay: Binding of AF488-labeled VLPs of norovirus GII.4 to the surface of 2fp-fucose-treated 2D organoid; assay type: cell-based, human norovirus; conditions: 2fp-fucose 0, 8, 40, 200, 1,000 μM, 4 treatment days
Protocol: In the Example, a nucleotide sequence (AB447456) encoding a structural protein domain of norovirus GII. 4 was incorporated into a baculovirus, and the sequence was expressed in insect cells (SF9 cells). The expression product was used in the Example.
Separately, VLPs of norovirus GII. 4 were labeled with AF488 (Alexa Fluor 488; green phosphor) and purified. The thus-prepared labeled VLPs were added to the 2fp-fucose-treated 2D organoid, and a state of binding of VLPs to the surface of the 2fp-fucose-treated 2D organoid was observed. Similar to the case of UEA-1, the 2fp-fucose concentration in the treatment was 0, 8, 40, 200, and 1,00 0 μM (for 4 treatment days). […] When the 2fp-fucose concentration exceeded 40 μM, definite reduction in VLP adsorption on the surface of 2D organoid was observed (FIG. 3(b)). FIG. 3(b) includes monochrome photographic images.

[1] = system: human norovirus GII.3 (TCH2004 strain); assay: Human norovirus proliferation inhibition in 2D organoid after 2fp-fucose treatment, GII.3 strain; assay type: cell-based; conditions: 3 days treatment before infection, days 3 and 6 after infection
Protocol: (§1) Feces of a human norovirus-infected patent contains a large amount of infectious human norovirus. Thus, the feces of a human norovirus-infected patient is suspended in distilled water or the like to a final concentration of about 10%, to thereby prepare a “10% feces suspension.” The 10% feces suspension is about 10-fold diluted with an ENRA medium. The diluted suspension is added to each of the aforementioned wells having the 2D organoid (5 μL/well) and subjected to incubation for about 3 hours, to thereby proliferate human norovirus. As a result of verification, it has been confirmed that human norovirus proliferates to about 100,000 times the initial count through the culture system employing the 2D organoid.
(§2) In the Example, there were tested strains of human norovirus obtained from feces of human norovirus infection patients through the aforementioned procedure and stocked before the test. Specifically, three strains belonging to the genetic group 2 (GII) which accounts for 80 to 90% of the infected patients were selected as test targets. The isolated strain lineages included in GII (FIG. 1) were GII. 6 belonging to “Lineage 1,” GII. […]
(§3) The effect of 2fp-fucose treatment on proliferation of human norovirus was investigated for each lineage of norovirus. […] 4, and the viral proliferation amount was determined on days 3 and 6 after infection (FIG. 4).

[2] = system: human norovirus GII. 6 (K2017 strain); assay: Human norovirus proliferation inhibition in 2D organoid after 2fp-fucose treatment, GII.6 strain; assay type: cell-based; conditions: 3 days treatment before infection, days 3 and 6 after infection
Protocol: as §1, §2, §3

[3] = system: human norovirus GII. 4 strain or GII. 6 strain; assay: Effect of treatment with 2fp-fucose or 6a-fucose after differentiation, on infection and reinfection (RNA titer by real-time RT-PCR); assay type: cell-based; conditions: fucose analog 200 μM added on day 5, infection on day (5+2), 3 days culturing
Protocol: (a) The 2D organoid was disseminated to a 96-well plate. After completion of differentiation induction, two fucose analogs (i.e., 2fp-fucose and 6a-fucose) were each added on day 5 to a concentration of 200 μM, to thereby provide addition groups. The results are shown in FIG. 14(a) and FIG. 14(b), respectively. A non-addition group (untreated group) was also provided. Subsequently, the medium was removed from the wells on day (5+2), and the plate was washed. Then, infection with the GII. 4 strain or the GII. 6 strain was performed.
After the infection treatment, the human norovirus remaining in the medium was removed together with the medium, and the plate was washed thrice with a new medium. After washing, the aforementioned active ingredients were each added to the new medium to a concentration of 200 μM (addition groups), and no addition was performed with respect to the untreated (i.e., non-addition) group. Culturing was performed for 3 days. A portion (10 μL) of the medium was sampled from each well, and the samples were centrifuged at 10,000 g for 10 minutes, to thereby remove cell precipitates. The amount of human norovirus genomic RNA in the supernatant (1 μL) was determined through real-time RT-PCR.
In the test system, the effect of the anti-norovirus agent of the present invention provided after human norovirus infection was estimated on the basis of the following study. Specifically, among the fucose analog-treated 2D organoid cells, the living cells on growth day 3 (i.e., most of them were not infected with human norovirus, by virtue of the effect of the fucose analog) were subjected to a secondary infection operation (i.e., reinfection). The effect of the fucose analog on the reinfection was investigated.
In a specific procedure, the addition groups were prepared through the same procedure as employed in (a) above. The primarily infected cells were cultured in the presence of the fucose analog (200 μM) for 3 days, and the medium was removed from each culture system. After completion of washing, the cells were infected again with human norovirus, and then the virus was removed together with the medium. After completion of the next washing, a medium containing the fucose analog (200 μM) (represented by Reinf+2f-fuc or Reinf+6a-fuc), or a fucose analog-free medium (represented by Reinf−2f-fuc or Reinf−6a-fuc) was added thereto, and culturing was performed for further 3 days. Similar to the above case, the amount of human norovirus released to the supernatant was determined as an RNA titer. In the graphs, the two bars on the right side correspond to (Reinf+2f-fuc and Reinf+6a-fuc) or (Reinf−2f-fuc and Reinf−6a-fuc).

CC(=O)OC1O[C@@H](C)[C@@H](OC(C)=O)[C@@H](OC(C)=O)[C@@H]1F (stereo partly drawn) [2fp-fucose, (3S,4R,5R,6S)-3-fluoro-6-methyltetrahydro-2H-pyran-2,4,5-triyl triacetate]
VLP binding amount on the surface of 2D organoid (VLP of norovirus GII. 4): decrease in a concentration-dependent manner
concentration of complete viral proliferation inhibition [1]: ≥ 40 µM
concentration of complete viral proliferation inhibition [2]: ≥ 200 µM
rise in RNA titer (proliferation of human norovirus) in the addition group [3]: no rise in RNA titer
rise in RNA titer of the untreated group with respect to the administration system [3]: ≥ 10 fold
